Where two headings read alike, the source gives them in different places.
Key:
[1] = target: T1, MATE1 (Homo sapiens, UniProt Q96FL8); assay: In vitro inhibition by OM; format: in vitro ADME; settings: result in words
T1 sequence (Q96FL8 1-570): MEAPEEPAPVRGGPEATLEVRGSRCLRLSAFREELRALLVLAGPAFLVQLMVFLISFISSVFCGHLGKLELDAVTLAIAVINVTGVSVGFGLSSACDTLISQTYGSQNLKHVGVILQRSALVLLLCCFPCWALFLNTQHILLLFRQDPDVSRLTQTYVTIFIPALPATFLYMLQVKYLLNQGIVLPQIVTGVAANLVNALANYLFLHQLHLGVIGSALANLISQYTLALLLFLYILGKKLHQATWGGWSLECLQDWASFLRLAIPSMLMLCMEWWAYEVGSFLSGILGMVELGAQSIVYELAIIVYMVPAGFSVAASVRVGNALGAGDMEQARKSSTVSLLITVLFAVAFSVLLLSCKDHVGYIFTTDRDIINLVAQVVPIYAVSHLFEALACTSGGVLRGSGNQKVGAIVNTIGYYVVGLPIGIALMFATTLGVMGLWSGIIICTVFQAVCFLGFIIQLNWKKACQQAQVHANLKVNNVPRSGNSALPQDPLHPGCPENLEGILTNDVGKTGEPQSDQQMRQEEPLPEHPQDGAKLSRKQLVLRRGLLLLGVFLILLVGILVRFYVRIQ

[2] = Drug interactions: change in OM pharmacokinetics in the presence of co-administered drugs; format: in vivo, human
[3] = system: patients with or without AFF; format: in vivo; settings: for Troponin I increase: at 6 weeks; for Treatment effect on primary outcome by AFF at baseline: multivariable covariate-interaction model
[4] = format: in vivo; settings: human, plasma, oral, at 6 weeks, read-out: Omecamtiv mecarbil PK value (plasma concentration), median
[5] = system: patients with HFrEF by baseline SBP; format: in vivo
Text: Systolic blood pressure (SBP) is a major predictor of outcomes in patients with heart failure and reduced ejection fraction (HFrEF). […] This trial provided data on the efficacy and tolerability of omecamtiv mecarbil according to baseline SBP values. In contrast to other HFrEF therapies, which may not be tolerated in patients with low baseline blood pressure (e.g., <100 mmHg), the present study was able to enroll patients with SBP at baseline of 85 mmHg or greater.
The 8232 randomized patients were subdivided according to SBP at baseline: <100 mmHg (n=1473), 101-110 mmHg (n=1734), 111-120 mmHg (n=1824), 121-130 mmHg (n=1627), and >130 mmHg (n=1574). Significant differences between these subgroups were found with respect of multiple baseline characteristics. The primary composite endpoint occurred in 715 (48.5%), 682 (39.3%), 679 (37.2%), 556 (34.2%), and 498 (31.6%) patients in each SBP subgroup, respectively. Hazard ratios (HRs) and 95% confidence intervals (CIs) for the treatment effect on the primary outcome were of 0.81, 0.70-0.94; 0.88, 0.76-1.03; 1.03, 0.88-1.19; 0.87, 0.73-1.03; and 1.07, 0.90-1.28 in each SBP subgroup, respectively.

[6] = system: CYP3A4; assay: Clinical studies and physiologically based pharmacokinetic modeling of OM as perpetrator; format: in vivo, human; settings: clinical studies and PBPK modeling; result in words
Text: OM may be administered with drugs that are substrates of CYP3A4, CYP2C8, P-gp or BCRP.

[7] = system: patients with EF≤30%, without AFF, without digoxin; format: in vivo, human
[8] = target: P-gp (Homo sapiens, UniProt P08183); assay: Transporter substrate assessment; format: in vitro ADME; settings: result in words
[9] = CYP2D6 genotype: PM (N = 8) versus EM (N = 16)
[10] = with P-gp inhibitor amiodarone 600 mg SD, OM 50 mg SD, vs OM alone
[11] = with moderate CYP3A inhibitor diltiazem 240 mg QD × 8 days, OM 10 mg SD, vs OM alone
[12] = with pH modifying agent omeprazole 40 mg QD × 6 days, OM 50 mg SD, vs OM alone
[13] = with strong CYP3A and P-gp inhibitor ketoconazole 200 mg BID × 8 days, OM 10 mg SD, vs OM alone
[14] = EF ≤30%, no AFF, no digoxin, OM + standard care (n = 2674)
[15] = EF ≤30%, no AFF, no digoxin, OM vs Pbo

Chain of P-gp (P08183 whole entry): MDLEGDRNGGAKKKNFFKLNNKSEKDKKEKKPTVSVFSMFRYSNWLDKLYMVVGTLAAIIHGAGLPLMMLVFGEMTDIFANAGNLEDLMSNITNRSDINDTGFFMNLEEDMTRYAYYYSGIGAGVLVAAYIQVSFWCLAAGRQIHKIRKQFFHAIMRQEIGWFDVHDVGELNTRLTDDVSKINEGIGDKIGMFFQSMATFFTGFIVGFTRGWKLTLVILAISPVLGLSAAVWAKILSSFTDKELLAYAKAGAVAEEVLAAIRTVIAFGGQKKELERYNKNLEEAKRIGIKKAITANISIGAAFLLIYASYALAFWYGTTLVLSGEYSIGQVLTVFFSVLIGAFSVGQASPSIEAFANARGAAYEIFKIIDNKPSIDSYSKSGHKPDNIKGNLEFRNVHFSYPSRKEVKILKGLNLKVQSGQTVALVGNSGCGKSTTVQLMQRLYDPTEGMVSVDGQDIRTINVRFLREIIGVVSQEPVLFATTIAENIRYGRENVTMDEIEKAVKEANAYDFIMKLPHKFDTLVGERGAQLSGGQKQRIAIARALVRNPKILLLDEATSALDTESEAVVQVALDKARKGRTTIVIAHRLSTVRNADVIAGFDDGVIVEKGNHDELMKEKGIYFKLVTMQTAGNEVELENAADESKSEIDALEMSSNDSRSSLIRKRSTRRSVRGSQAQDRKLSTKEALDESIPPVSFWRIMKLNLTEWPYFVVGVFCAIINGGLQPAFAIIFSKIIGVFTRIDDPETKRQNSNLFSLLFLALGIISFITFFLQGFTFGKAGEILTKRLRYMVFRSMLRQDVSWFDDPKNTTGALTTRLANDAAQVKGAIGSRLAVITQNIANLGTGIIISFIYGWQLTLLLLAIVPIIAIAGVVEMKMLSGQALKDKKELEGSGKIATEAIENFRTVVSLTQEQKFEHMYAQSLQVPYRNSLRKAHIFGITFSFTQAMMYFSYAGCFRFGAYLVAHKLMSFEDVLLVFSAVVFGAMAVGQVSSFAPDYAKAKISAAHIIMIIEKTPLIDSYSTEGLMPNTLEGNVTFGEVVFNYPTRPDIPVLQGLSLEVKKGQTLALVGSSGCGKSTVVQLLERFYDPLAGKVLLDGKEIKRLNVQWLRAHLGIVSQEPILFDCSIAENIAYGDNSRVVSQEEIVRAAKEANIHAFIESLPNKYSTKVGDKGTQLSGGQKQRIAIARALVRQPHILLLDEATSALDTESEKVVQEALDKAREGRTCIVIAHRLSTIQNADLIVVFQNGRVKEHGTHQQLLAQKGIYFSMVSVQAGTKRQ

In the case of `COC(=O)N1CCN(Cc2cccc(NC(=O)Nc3ccc(C)nc3)c2F)CC1` [omecamtiv mecarbil], the “Inhibition of MATE1” value [1] is reported as “inhibitor”, the “% Change of OM AUC (↑ = increase)” value [2, 9] is reported as “↑30%” and the “% Change of OM Cmax (↓ = decrease)” value [2, 9] is reported as “↓18%”. The “Mean Ratio of OM AUC (90% CI)” value [2, 9] was 1.30 (0.93-1.82), the “Mean Ratio of OM Cmax (90% CI)” value [2, 9] was 0.82 (0.63-1.07) and the “% Change of OM AUC (↑ = increase)” value [2, 10] was “↑ 21%”. For the same compound, the “Mean Ratio of OM AUC (90% CI)” value [2, 10] was 1.21 (1.08-1.36), the “Mean Ratio of OM Cmax (90% CI)” value [2, 10] was 1.08 (0.96-1.22) and the “% Change of OM Cmax (↓ = decrease)” value [2, 11] was “↓21%”. For the same compound, the “Mean Ratio of OM AUC (90% CI)” value [2, 11] was 1.08 (0.97-1.22), the “Mean Ratio of OM Cmax (90% CI)” value [2, 11] was 0.79 (0.60-1.04) and the “Mean Ratio of OM AUC (90% CI)” value [2, 12] was 0.95 (0.82-1.09). For the same compound, the “Mean Ratio of OM Cmax (90% CI)” value [2, 12] was 1.01 (0.95-1.07), the “% Change of OM AUC (↑ = increase)” value [2, 13] was “↑51%” and the “Mean Ratio of OM AUC (90% CI)” value [2, 13] was 1.51 (1.20-1.91). The “Mean Ratio of OM Cmax (90% CI)” value [2, 13] was 1.03 (0.76-1.40), the “Troponin I increase” value ([3]; patients in AFF at baseline not taking digoxin) was “+45%” and the “Troponin I increase” value ([3]; patients in AFF at baseline taking digoxin) was “+29%”. The “Treatment effect on primary outcome by AFF at baseline” value ([3]; result in words) was “greater benefit observed in patients not in AFF”, the “Treatment effect on primary outcome by AFF at baseline” value ([3]; result in words, listed as OM) was “patients without AFF deriving greater benefit” and the “Serious adverse events, events” value ([3]; per 2974 patients, over the course of the study (FIG. 21E)) was 55 events. For the same compound, the “Treatment effect modification by AFF according to digoxin use” value ([3]; result in words) was “significantly more pronounced in digoxin users than in non-users”, the concentration at 6 weeks ([4]; patients not taking digoxin) was 280 ng/mL and the concentration at 6 weeks ([4]; patients taking digoxin) was 286 ng/mL. The “Primary outcome, hazard ratio for the treatment effect” value (“Primary outcome, hazard ratio” below) ([5]; baseline SBP 101-110 mmHg (n=1734)) was 0.88, the “Primary outcome, hazard ratio” value ([5]; baseline SBP 111-120 mmHg (n=1824)) was 1.03 and the “Primary outcome, hazard ratio” value ([5]; baseline SBP 121-130 mmHg (n=1627)) was 0.87. For the same compound, the “Primary outcome, hazard ratio” value ([5]; baseline SBP <100 mmHg (n=1473)) was 0.81, the “Primary outcome, hazard ratio” value ([5]; baseline SBP >130 mmHg (n=1574)) was 1.07 and the “Induction of CYP3A4” value [6] was “weak inducer”. The “Cumulative rate of HFEs at 36 months” value [7, 14] was 81.8/ /100 pts, the “Frequency of HFE (all events)” value [7, 14] was 31.2/ /100 pt yrs and the “IV Diuretics /Inotropes Nasodilators” value [7, 14] was 35.7 /100 pt yrs. For the same compound, the “Mechanical circulatory support during HF hospitalizations” value [7, 14] was 2.2 /100 pt yrs, the “Mechanical fluid removal during HF hospitalizations” value [7, 14] was 0.8 /100 pt yrs and the “Time to first HFE, rate” value [7, 14] was 18.9/ /100 pt yrs. For the same compound, the “Total days in hospital” value [7, 14] was 524.1 /100 pt yrs, the “Cumulative rate of HFEs at 36 months, Rate Ratio” value [7, 15] was “Rate Ratio 0.799” and the “Cumulative rate of HFEs: treatment effect over time” value [7, 15] was “increasing”. The “Frequency of HFE (all events), ARR” value [7, 15] was “ARR 6.7/100 pt yrs”, the “Frequency of HFE (all events), HR” value [7, 15] was “HR 0.85,” and the “Frequency of HFE (all events), NNT” value [7, 15] was “NNT 14.9”. The “Time to first HFE, ARR” value [7, 15] was “ARR 3.8/100 pt yrs”, the “Time to first HFE, NNT” value [7, 15] was “NNT 26.5” and the “Clinical benefits and resource utilization” value ([7]; EF≤30%, without AFF, without digoxin at baseline, result in words) was “significant clinical benefits and reductions in resource utilization”. For the same compound, the “Substrate of P-gp” value [8] was “substrate”.

From patent US12194039B2, “Methods of treating heart failure by administering omecamtiv mecarbil” (Cytokinetics, Inc., priority 2020, dated 2025)
